In article PMC406516 (BMC Clinical Pharmacology, 2004):
Each block holds one compound with its values, some of them ahead of it.

Legend:
[1] = biological target: Pharmaceutical-grade albumin Baxter/Immuno (Homo sapiens, UniProt P02768)
[2] = biological target: albumin solutions from Baxter/Immuno, Octapharma, and Pharmacia & Upjohn (Homo sapiens, UniProt P02768)
[3] = biological target: Pharmaceutical-grade albumin Octapharma (Homo sapiens, UniProt P02768); experiment: Drug binding by ultrafiltration in pharmaceutical-grade albumin from Octapharma; conditions: for n1 (specific binding sites): Final product
[4] = biological target: Human serum (Homo sapiens, UniProt P02768); experiment: Drug binding by ultrafiltration in native human serum
[5] = biological target: Pharmaceutical-grade albumin Pharmacia & Upjohn (Homo sapiens, UniProt P02768)
[6] = system: albumin; conditions: cited from earlier work
[7] = biological target: in-process albumin (Octapharma, before addition of stabilisers and final heating) (Homo sapiens, UniProt P02768); experiment: Drug binding by ultrafiltration in in-process albumin from Octapharma; conditions: mean (SD), 5 experiments
[8] = biological target: defatted human serum albumin (Sigma albumin) (Homo sapiens, UniProt P02768); experiment: Drug binding by ultrafiltration in Sigma albumin solution; conditions: isolated protein, pH 7.4
[9] = biological target: Sigma albumin and native human serum (Homo sapiens, UniProt P02768); conditions: relative to K1 of naproxen; summary of Table 2
[10] = Baxter/Immuno albumin 0.615 mmol/L, Scatchard, mean (SD), 5 experiments
[11] = charcoal treated, mean (SD), 5 experiments
[12] = Octapharma albumin 0.615 mmol/L, Scatchard, mean (SD), 5 experiments
[13] = human serum, Scatchard, mean (SD), 5 experiments
[14] = Pharmacia & Upjohn albumin 0.615 mmol/L, Scatchard, mean (SD), 5 experiments
[15] = human, isolated protein, pH 7.4

Human serum, sequence (P02768 25-609): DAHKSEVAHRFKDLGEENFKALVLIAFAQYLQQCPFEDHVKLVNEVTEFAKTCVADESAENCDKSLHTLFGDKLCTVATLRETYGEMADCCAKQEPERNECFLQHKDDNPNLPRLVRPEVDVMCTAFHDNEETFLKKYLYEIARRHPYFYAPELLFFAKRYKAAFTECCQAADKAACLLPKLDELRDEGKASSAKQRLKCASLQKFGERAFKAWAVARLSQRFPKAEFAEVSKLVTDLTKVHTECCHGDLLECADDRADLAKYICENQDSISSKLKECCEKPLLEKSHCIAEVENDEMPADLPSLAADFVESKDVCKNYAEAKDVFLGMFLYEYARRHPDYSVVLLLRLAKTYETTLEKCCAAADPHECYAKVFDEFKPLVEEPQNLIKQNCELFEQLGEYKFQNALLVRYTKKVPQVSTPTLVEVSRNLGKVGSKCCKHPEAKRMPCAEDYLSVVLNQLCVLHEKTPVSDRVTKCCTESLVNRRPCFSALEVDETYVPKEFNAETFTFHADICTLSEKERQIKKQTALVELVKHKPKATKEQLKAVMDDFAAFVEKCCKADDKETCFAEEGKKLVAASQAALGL
Pharmaceutical-grade albumin Pharmacia & Upjohn, sequence (P02768 25-609): as above
Pharmaceutical-grade albumin Octapharma, sequence (P02768 25-609): as above
Pharmaceutical-grade albumin Baxter/Immuno, sequence (P02768 25-609): as above
albumin solutions from Baxter/Immuno, Octapharma, and Pharmacia & Upjohn, sequence (P02768 25-609): as above
in-process albumin (Octapharma, before addition of stabilisers and final heating), sequence (P02768 25-609): as above
defatted human serum albumin (Sigma albumin), sequence (P02768 25-609): as above
Sigma albumin and native human serum, sequence (P02768 25-609): as above

Non Specific binding n2 (number of binding sites) [1, 10]: 3.8 (0.2)
specific binding ([2]; albumin solutions from Baxter/Immuno, Octapharma, and Pharmacia & Upjohn): abolished
n1 (specific binding sites) [3, 11]: 1.1 (0.1)
n1 (specific binding sites) ([3]; charcoal treated, mean (SD), 5 experiments, listed as naproxen): 1.1 ± 0.1
Non Specific binding n2 (number of binding sites) [3, 12]: 4.0 (0.3)
Non Specific binding n2 (number of binding sites) [4, 13]: 3.9 (0.2)
Specific binding n1 (number of binding sites) [4, 13]: 1.0 (0.1)
Non Specific binding n2 (number of binding sites) [5, 14]: 3.8 (0.3)
SMILES: COc1ccc2cc([C@H](C)C(=O)O)ccc2c1 [Naproxen, naproxen]

SMILES: C[C@H]1O[C@@H](O[C@H]2[C@@H](O)C[C@H](O[C@H]3[C@@H](O)C[C@H](O[C@H]4CC[C@@]5(C)[C@H](CC[C@@H]6[C@@H]5CC[C@]5(C)[C@@H](C7=CC(=O)OC7)CC[C@]65O)C4)O[C@@H]3C)O[C@@H]2C)C[C@H](O)[C@@H]1O [Digitoxin, digitoxin]
Specific binding n1 (number of binding sites) [1, 10]: 1.1 (0.1)
fraction unbound at 30 min [1, 15]: 0.111
free fraction higher than in native human serum and Sigma albumin ([2]; pharmaceutical-grade albumins versus native human serum and Sigma albumin): ~2 times
n1 (specific binding sites) [3, 11]: 1.3 (0.2)
n1 (specific binding sites) ([3]; not charcoal treated, mean (SD), 5 experiments): 1.1 (0.1)
Specific binding n1 (number of binding sites) [3, 12]: 0.9 (0.03)
fraction unbound at 30 min [3, 15]: 0.1
albumin-bound [6]: more than 95%
n1 (specific binding sites) ([7]; charcoal treated): 0.8 (0.03)
n1 (specific binding sites) ([7]; not charcoal treated): 0.8 (0.03)
Specific binding n1 (number of binding sites) [4, 13]: 1.8 (0.5)
fraction unbound at 30 min ([4]; human, serum, pH 7.4): 0.049
fraction unbound at 30 min [8]: 0.051
K1 higher than that of naproxen [9]: ~100 times
Specific binding n1 (number of binding sites) [5, 14]: 1.4 (0.3)
fraction unbound at 30 min [5, 15]: 0.115
